Data reported in patent US20250195432A1, “METHODS FOR PREPARING AND CHARACTERIZING ZEIN-FUCOIDAN CONJUGATED NANO-LIPOSOME FOR PHYTOL ENCAPSULATION” (Zhejiang Academy of Forestry, priority 2023, published 2025).

Tests used:
HepG2 cells [1] = assay: SOD activity in HepG2 cells with TBHP-induced oxidative damage; format: cell-based, human; conditions: HepG2, TBHP (10 μg/mL)
Method: (§1) • culturing the digested HepG2 cells for 24 hours and then adding […] concentrations of PHY, P-ZF, P-NL, and P-NL-ZF to the plate for another 24 hours of incubation; […]; measuring a cell survival rate, an intracellular reactive oxygen species (ROS) level, malondialdehyde (MDA) content, and superoxide dismutase (SOD) activity.
(§2) • placing the digested HepG2 cells in a culture dish and performing a treatment as in step (O); adding 10.00 μM 2′,7′-dichlorodihydrofluorescein diacetate (DCFH-DA) and incubating for 0.5 hours, followed by washing with PBS (pH 7.4); allowing intracellular esterase to cleave the DCFH-DA, which is then oxidized to highly fluorescent dichlorofluorescein in the presence of ROS; measuring a fluorescence intensity of the 96-well plate using a multifunctional microplate reader at an excitation wavelength of 485 nm and an emission wavelength of 528 nm, expressing the intracellular ROS level as a percentage of the negative control group; • assessing the SOD activity and the MDA content by culturing the digested HepG2 cells for 24 hours; after the treatment as in step (O), adding 300 μL of lysis buffer and incubating on ice for 30 minutes; centrifuging at 11,000×g for 5 minutes at 4° C. and collecting a resulting supernatant; and quantifying the SOD activity and the MDA content according to instructions of SOD and MDA assay kits; and […]

HepG2 cells [2] = assay: Intracellular ROS level (DCFH-DA) in HepG2 cells with TBHP-induced oxidative damage; format: cell-based, human; conditions: for ROS level (percentage of the negative control group): HepG2, pre-treatment 100 μg/mL phytol 24 h, then TBHP (10 μg/mL)
Method: • […], P-ZF, P-NL, and P-NL-ZF to the plate for another 24 hours of incubation; […]; measuring a cell survival rate, an intracellular reactive oxygen species (ROS) level, malondialdehyde (MDA) content, and superoxide dismutase (SOD) activity.
• placing the digested HepG2 cells in a culture dish and performing a treatment as in step (O); adding 10.00 μM 2′,7′-dichlorodihydrofluorescein diacetate (DCFH-DA) and incubating for 0.5 hours, followed by washing with PBS (pH 7.4); allowing intracellular esterase to cleave the DCFH-DA, which is then oxidized to highly fluorescent dichlorofluorescein in the presence of ROS; measuring a fluorescence intensity of the 96-well plate using a multifunctional microplate reader at an excitation wavelength of 485 nm and an emission wavelength of 528 nm, expressing the intracellular ROS level as a percentage of the negative control group; • assessing the SOD activity and the MDA content by culturing the digested HepG2 cells for 24 hours; after the treatment as in step (O), adding 300 μL of lysis buffer and incubating on ice for 30 minutes; centrifuging at 11,000×g for 5 minutes at 4° C. and collecting a resulting supernatant; and quantifying the SOD activity and the MDA content according to instructions of SOD and MDA assay kits; and
• seeding the digested cells at a density of 3×10^5 cells per well into a 6-well plate and incubating for 24 hours; after incubation, aspirating a culture medium and continuing with the grouping and treatment as in step (0); after 24 hours, replacing an original solution with 25 μM DCFH-DA solution and incubating for 60 minutes; washing the cells twice with PBS to remove unabsorbed probes; observing a fluorescence generated within the cells by placing the 6-well plate under a fluorescence microscope equipped with an FITC fluorescence channel.
HepG2 cells, after digestion, were seeded at a density of 1×10^5 cells/well in a 96-well cell culture plate and were placed in a cell culture incubator. […]

HepG2 cells [3] = assay: TBHP-induced oxidative damage concentration, cell viability by CCK-8; format: cell-based, human; conditions: HepG2, TBHP 10 μg/mL, 24 hours
Method: HepG2 cells, after digestion, were seeded at a density of 1×10^5 cells/well in a 96-well cell culture plate and were incubated in a cell culture incubator. […] After 24 hours of incubation, the culture medium was removed, and the working solutions of TBHP at different concentrations were added to the wells, followed by an additional 24 hours of incubation. After the incubation period, the vitality of the HepG2 cells was assessed using the CCK-8 method, as detailed in section 2.6.4.

HepG2 cells [4] = assay: MDA content in HepG2 cells with TBHP-induced oxidative damage; format: cell-based, human; conditions: HepG2, TBHP (10 μg/mL)
Method: as §1, §2

[5] = Photostability under UV light, phytol retention by GC-MS; format: physicochemical; conditions: after 16 hours of UV exposure; free phytol in ethanol
Method: • exposing a sample to ultraviolet (UV) light for various irradiation durations: […], 90 minutes, 120 minutes, 150 minutes, 180 minutes, 210 minutes, 240 minutes, 270 minutes, […]; and determining retention of phytol content using GC-MS.
To assess the photostability of phytol loaded in nanoparticles (P-ZF, P-NL, and P-NL-ZF) as well as free phytol dissolved in ethanol, samples were irradiated under UV light for various durations: […], 90 minutes, 120 minutes, 150 minutes, 180 minutes, 210 minutes, 240 minutes, 270 minutes, […] The content of retained phytol was determined using GC-MS as described in Section 2.5.2. The calculation formula for retention rate is given as follows: […]

[6] = Hydroxyl radical scavenging activity; format: biochemical; conditions: 37° C., 30 minutes, absorbance 536 nm
Method: • mixing 1.00 mL of the nanoliposomes with 1.00 mL of 9.00 mmol/L salicylic acid ethanol solution, 1.00 mL of 9.00 mmol/L FeCl2, and 1.00 mL of 8.80 mmol/L H2O2; incubating a resulting mixture in the dark at 37° C. for 30 minutes; measuring an absorbance of a reaction mixture at 536 nm using a multifunctional microplate reader and calculating a hydroxyl radical scavenging rate;
A sample of the nanoliposome (1.00 mL) was mixed with an ethanol solution of salicylic acid (1.00 mL, 9.00 mmol/L), FeCl2 (1.00 mL, 9.00 mmol/L), and H2O2(1.00 mL, 8.80 mmol/L) and incubated in the dark at 37° C. for 30 minutes. The absorbance of the reaction mixture was measured at 536 nm using a multifunctional microplate reader (Varioskan Flash, Thermo Fisher Scientific, Massachusetts, USA). The hydroxyl radical scavenging rate was calculated using the following formula: […]

| Compound | SOD activity (HepG2 cells [1]) | ROS level (percentage of the negative control group) (HepG2 cells [2]) | cell viability (HepG2 cells [3]) | MDA level (lipid peroxidation) (HepG2 cells [4]) | reduction of ROS level compared to the positive control (328.16%) (HepG2 cells [2]; HepG2, TBHP (10 μg/mL)) | retention rate of phytol under UV [5] | scavenging capability against •OH radicals [6] |
| --- | --- | --- | --- | --- | --- | --- | --- |
| CC(C)(C)OO [TBHP, Tert-Butyl Hydrogen Peroxide] | 8.43 U/mg protein | 328.42% | 65.67% | significant increase in MDA |  |  |  |
| (2E,3,7R,11R,15)-tetramethyl-hexadecen-1-ol [PHY] | 11.61 U/mg protein | 230.72% |  |  | 97.44% | 1.21% | 40% |
